Patent publication US5554620A, “Substituted 6,11-ethano-6,11-dihydrobenzo[b] quinolizinium salts and compositions and methods of use thereof” (Sterling Winthrop Inc., priority 1994, dated 1996)

molecular target: PCP receptor; experiment: [3H]TCP radioreceptor assay (binding to PCP recognition sites); parameters: species or system rat (male Sprague-Dawley, whole brain); conditions: [3H]TCP approx. 1 nM, rat brain membranes; mean of at least two determinations
Procedure: [^3 H]TCP Radioreceptor Assay
[^3 H]TCP binding to PCP recognition sites was performed as described by Vignon et al. Brain Research 1983, 280, 194-197. Male Sprague-Dawley rats were sacrificed by decapitation, and whole brains were homogenized in 10 volumes (wt/vol) of cold Tris-HCl buffer (50 mM, pH 7.7) using a Brinkmann Polytron (setting 6, 30 sec). The homogenate was centrifuged at 40,000×g for 10 min at 4° C. The supernatant was decanted, and the homogenization and centrifugation steps were repeated twice as described above. Following this, the pellet was resuspended in Tris-HCl (5 mM, pH 7.7) at a tissue concentration of 0.5-0.75 g/mL, and one mL aliquots were frozen at -70° C. until use. The binding characteristics for PCP recognition sites were not altered by the freezing of membrane suspensions.
On the day of the assay, membrane aliquots were thawed, resuspended in fresh 5 mM Tris-HCl buffer at a tissue concentration of 1 mg/mL, and stored on ice until use. Each assay tube contained 100 μl of [^3 H]TCP at a final concentration of approximately 1 nM, 100 μL of various concentrations of the compounds of interest, 500 μL of the tissue suspension and 300 μL of buffer to a final assay volume of 1 mL and a final protein concentration of 0.5 mg/tube. Non-specific binding was defined by addition of a final concentration of 100 μM PCP to blank tubes. All tubes were incubated at room temperature for 25 min before termination of the reaction by rapid filtration over Whatman GF/B glass fiber filters that had been presoaked in a solution of 0.5% polyethylenimine for at least 1 hr prior to use. Filters were washed with three 4 mL volumes of cold Tris buffer. Following addition of scintillation cocktail, the amount of bound radioactivity was determined by liquid scintillation spectrometry using a Beckman LS 5000TA liquid scintillation counter with an efficiency for tritium of approximately 55%. Inhibition constants (Ki values) were calculated using the EBDA/LIGAND program (McPherson, J. Pharmacol. Meth. 1985, 14, 213-228), purchased from ElsevierBiosoft, Inc. Results are reported as the Ki values (in nM) which are expressed as the mean of at least two separate determinations; or as a percent (%) inhibition of binding at 10 μM.

Compound	Ki [nM]
[O-][Cl+3]([O-])([O-])[O-].c1ccc2c(c1)C1CC(c3cocn3)(c3cocn3)C2c2cccc[n+]21 (stereo not drawn) [53(g), 6,11-ethano-12,12-di(4-oxazolyl)-6,11-dihydrobenzo[b]quinolizinium perchlorate]	93
Cc1cc[n+]2c(c1)C1c3ccccc3C2CC1(c1ccccc1)c1ccccc1.[O-][Cl+3]([O-])([O-])[O-] (stereo not drawn) [54(E), 6,11-ethano-12,12-diphenyl-2-methyl-6,11-dihydrobenzo[b]quinolizinium perchlorate]	52
Clc1cccc(C2(c3cccc(Cl)c3)CC3c4ccccc4C2c2cccc[n+]23)c1 (stereo not drawn) [55(b), 6,11-ethano-12,12-di(m-chlorophenyl)-6,11-dihydrobenzo[b]quinolizinium chloride]	104
CCCCC12CC(c3ccccc3)(c3ccccc3)C(c3ccccc31)c1cccc[n+]12.[O-][Cl+3]([O-])([O-])[O-] (stereo not drawn) [59(c), 6,11-ethano-12,12-diphenyl-6-butyl-6,11-dihydrobenzo[b]quinolizinium perchlorate]	3910
Brc1ccc(Br)c2c1C1CC(c3ccoc3)(c3ccoc3)C2c2cccc[n+]21.[O-][Cl+3]([O-])([O-])[O-] (stereo not drawn) [60(e), 6,11-ethano-12,12-di(3-furyl)-7,10-dibromo-6,11-dihydrobenzo[b]quinolizinium perchlorate]	345
c1ccc2c(c1)C1CC(c3nccs3)(c3nccs3)C2c2cccc[n+]21 (stereo not drawn) [61(c), 6,11-ethao-12,12-di(2-thiazolyl)-6,11-dihydrobenzo[b]quinolizinium perchlorate]	17
[O-][Cl+3]([O-])([O-])[O-].c1ccc2c(c1)C1CC(c3cncs3)(c3cncs3)C2c2cccc[n+]21 (stereo not drawn) [62(c), 6,11-ethano-12,12-di(5-thiazolyl)-6,11-dihydrobenzo[b]quinolizinium perchlorate]	120
COc1cccc2c1C1c3cccc[n+]3C2CC1(c1ccoc1)c1ccoc1 (stereo not drawn) [66(g), 6,11-ethano-12,12-di(3-furanyl)-10-methoxy-6,11-dihydrobenzo[b]quinolizinium chloride]	6
COc1cccc(C2(c3cccc(OC)n3)CC3c4ccccc4C2c2cccc[n+]23)n1.[O-][Cl+3]([O-])([O-])[O-] (stereo not drawn) [67(e), 6,11-ethano-12,12-di-(6-methoxypyridin-2-yl)-6,11-dihydrobenzo[b]quinolizinium perchlorate]	80
c1ccc2c(c1)C1CC(c3cnn[nH]3)(c3cnn[nH]3)C2c2cccc[n+]21 (stereo not drawn) [70(F), 6,11-ethano-12.12-di-(5-1,2,3-triazoyl)6,11-dihydrobenzo[b]quinolizinium Chloride]	3830
c1ccc2c(c1)C1CC(c3cc[nH]c3)(c3cc[nH]c3)C2c2cccc[n+]21 (stereo not drawn) [71(F), 6,11-ethano-12,12-di(3-pyrrolyl)-6,11-dihydrobenzo[b]quinolizinium chloride]	3.1
[O-][Cl+3]([O-])([O-])[O-].c1ccc(C2(c3ccccc3)CC3c4ccccc4C2c2cccc[n+]23)cc1 (stereo not drawn) [111(a), 6,11-Ethano-12,12-diphenyl-6,11-dihydrobenzo[b]quinolizinium perchlorate]	6.07
[O-][Cl+3]([O-])([O-])[O-].c1ccc(C2(N3CCOCC3)CC3c4ccccc4C2c2cccc[n+]23)cc1 (stereo not drawn) [111(b), 6,11-Ethano-12-phenyl-12-(4-morpholinyl)-6,11-dihydrobenzo[b]quinolizinium perchlorate]	37.8

same assay, conditions: inhibition of [3H]TCP binding at 10 μM

Compound	[3H]TCP percent inhibition @ 10 μm [%]
FC(F)(F)c1cccc(C2(c3cccc(C(F)(F)F)c3)CC3c4ccccc4C2c2cccc[n+]23)c1.[Cl-] (stereo not drawn) [46(c), 6,11-ethano-12,12-di(m-trifluoromethylphenyl)-6,11-dihydrobenzo[b]quinolizinium chloride]	31
[Cl-].c1ccc2c(c1)C1CC(c3ccncc3)(c3ccncc3)C2c2cccc[n+]21 (stereo not drawn) [49(E), 6,11-ethano-12,12-di(4-pyridyl)-6,11-dihydrobenzo[b]quinolizinium chloride]	54
